Test results: patent US9145382B2, “Organic compound and electrochromic device using the same” (CANON KABUSHIKI KAISHA, priority 2014, dated 2015)

Experiments:
Type in all cases: physicochemical
[1] = Durable stability against oxidation-reduction cycle (square-wave potential program, CV oxidation peak current); details: for Durability evaluation: change in oxidation peak current (CV) before and after 10000 oxidation-reduction cycles, 1.0×10^−4 mol/L in 0.1 mol/L tetrabutylammonium perchlorate in dichloroethane
Procedure: The durable stability against the oxidation-reduction cycle of the organic EC compound according to the present invention was evaluated. Specifically, the durability against repetition of an oxidation-reduction was evaluated using the illustrated compound A-1, the illustrated compound A-3 and Ref-1 as evaluation targets.
The measurement of durability against repetition of an oxidation-reduction was performed using a solution prepared by dissolving each compound in a predetermined solvent as a target sample, using a measuring apparatus provided with a work electrode, a counter electrode and a reference electrode. Here, the electrodes provided in the measuring apparatus and the solvent used will be shown below.
Work electrode: Glassy carbon
(§1) Counter electrode: Platinum
(§2) Reference electrode: Silver
Supporting electrolyte (solvent): Solution of tetrabutylammonium perchlorate in dichloroethane (0.1 mol/L)
Solution concentration: 1.0×10^−4 mol/L
The above solution was subjected to a square-wave potential program including oxidation at a constant potential and reduction at a constant potential for 10000 times. Here, the oxidation at a constant potential is a process of applying a potential equal to or higher than the oxidation potential of a target compound to the above solution for 10 seconds, and the reduction at a constant potential is a process of applying a potential of 0 V based on the reference electrode (Ag/Ag^+) to the above solution for 10 seconds.
The durability against repetition of an oxidation-reduction was evaluated based on the change in the amount of oxidation peak current in cyclic voltammetry (CV) measurement before and after the oxidation-reduction cycles for 10000 times. Specifically, when the rate of change in the amount of oxidation peak current was less than 20%, the durability was evaluated as Good, and when the rate of change was 20% or more, the durability was evaluated as Poor.

[2] = Measurement of solubility in propylene carbonate; details: for solubility: organic solvent or mixture
Source text: [Measurement of Solubility in Propylene Carbonate]
Note that propylene carbonate is a solvent contained in the electrochromic layer constituting the EC device. Further, Ref-1 is a compound in which methyl groups having no ethylene oxide chains are substituted at the 3-position and the 4-position of the thiophene ring, and substituents (substituents corresponding to A1 and A2 in general formula [1]) at the ortho positions of the phenyl group bonded to the thiophene ring are hydrogen atoms (no substitution).

[3] = Absorption spectrum in the neutral (bleached) state, UV-visible spectrophotometer; details: in chloroform
Procedure: The illustrated compound A-1 obtained was dissolved in chloroform, and the resulting solution was measured using an ultraviolet and visible spectrophotometer (V-560 manufactured by JASCO Corporation). As a result, an absorption spectrum illustrated in FIG. 6 was obtained.
Solutions prepared by dissolving compounds synthesized in Examples in chloroform were measured for the absorption spectra in the neutral state (bleached state) using an ultraviolet and visible spectrophotometer (V-560 manufactured by JASCO Corporation).

[4] = Absorption spectrum in the oxidized (colored) state, oxidation at constant potential; details: 5.0×10^−4 mol/L in 0.1 mol/L tetrabutylammonium perchlorate in propylene carbonate
Procedure: Next, the absorption spectra in the oxidized (colored) state were measured. Specifically, the absorption spectra were measured using a measuring cell provided with a work electrode, a counter electrode, a reference electrode and a liquid tank. Here, the electrodes provided in the measuring cell and the solute and solvent which are contained in the solution charged to the liquid tank will be shown below.
as §1, §2
Solute: Evaluation target compounds (illustrated compounds A-1 and A-3)
Solvent (supporting electrolyte): Solution of tetrabutylammonium perchlorate in propylene carbonate (0.1 mol/L)
(Note that the concentration of the solution charged to the liquid tank is 5.0×10^−4 mol/L.)
A compound was subjected to oxidation at a constant potential by applying a potential equal to or higher than the oxidation potential of the compound using the measuring cell to thereby measure the change in the absorption spectra and transmittance spectra. Here, the absorption peak wavelength in the colored state (oxidized state) and the absorption peak wavelength in the bleached state (neutral state) are shown in the following Table 3.

Compound | Durability evaluation [1] | number of oxidation-reduction cycles after which the amount of oxidation peak current was decreased by 20% ([1]; square-wave potential program, 10 s oxidation / 10 s reduction) | appearance of solution when a concentration of 6 mM was going to be prepared ([2]; 6 mM) | solubility [2] [mM] | absorption in the visible light region (neutral state) [3] | Neutral absorption λmax ([3]; neutral (bleached) state) [nm] | Oxidized absorption λmax′ [4] [nm]
Cc1c(-c2ccccc2)sc(-c2ccccc2)c1C [Ref-1] | Poor (when the rate of change was 20% or more, the durability was evaluated as Poor) | about 2400 times | turbid | < 6 | – | – | –
COCCOCc1c(-c2c(OC)cccc2OC(C)C)sc(-c2c(OC)cccc2OC(C)C)c1COCCOC [A-1] | Good (when the rate of change in the amount of oxidation peak current was less than 20%, the durability was evaluated as Good) | – | – | ≥ 150 | does not have absorption over the whole visible light region | 282.0 | 415.8
